Source: patent US7612049B2, “Method of inhibition the growth of algae” (priority 2007, dated 2009)

Experiments:
Format in all cases: cell-based
Microcystis aeruginosa = assay: Growth inhibition of Cyanobacteria, chlorophyll-a content
Description: (§1) The solution of the control and sample I were centrifuged at 10000 rpm at 20° C. for 3 hours, and then the supernatant were poured out. Next, two 10 ml portions of 95% (v/v) ethanol were added to sample I and the control and mixed with the residues. Next, the solution of sample I and the control were water-bathed in 60° C. water for 30 mins to extract Chlorophyll-a. When being bathed in the water, the solution of the control and sample I were shaken every ten minutes. After that, the solutions were centrifuged at 5000 G at 20° C. for 15 minutes and the supernatants were kept. Then, the absorbance at 665 nm of the control and sample I were detected. Finally, according to the “Standard Methods for the Examination Chlorophyll-a in Water-Ethanol Extraction” issued by National Indian Education Association, Taiwan (NIEA E508.00B), the absorbance at 665 nm of the control and sample I were calibrated and the concentration of Chlorophyll-a content can be calculated by the absorbance measure.
(§2) To verify whether Cyanobacteria can be inhibited by glucosamine or not, in the following embodiment, two kinds of toxic Cyanobacteria, Microcystis aeruginosa and […]. The detailed procedures are described below.
(§3) First, four 50 ml portions of water with Microcystis aeruginosa were obtained and labeled as control and sample II, sample III, and sample IV respectively. The weight concentration of Microcystis aeruginosa cell in these four samples 883 μg/L (ppb). Next, different amount of glucosamine was added into the three samples so that the concentrations of glucosamine in samples II, III, and IV were 10 ppm, 20 ppm, and 50 ppm, respectively. After that, the control and sample II, III, and IV were cultured for 14 days with Bold's medium, and the Chlorophyll-a content of each sample were detected every 7 days. The procedures of detecting Chlorophyll-a content was the same as mentioned in embodiment I and the whole process was repeated for testing Microcystis flos-aquae.

Microcystis flos-aquae = assay: as above
Description: as §1, §2, §3

[1] = test system: fishpond water algae, especially abundant in Chlorophyta; assay: Growth inhibition of algae in fishpond water, chlorophyll-a content by spectrometry; details: 100 ppm glucosamine
Description: In order to test if glucosamine inhibited the growth of algae or not, in the following embodiment, glucosamine was added to samples and then observed. Moreover, since chlorophyll-a content of algae is widely used as an indicator of the quality of freshwater bodies and the abundance of algae, the chlorophyll-a content in the sample was detected by spectrometry.
First, two 20 ml portions of water were obtained from a fishpond which contains a varieties of algae and is especially abundant in Chlorophyta. Both portions of water were labeled as control and sample I respectively. Next, 100 ppm glucosamine was added in sample I, and then the control and sample I were cultured for 28 days with Bold's medium.
The solution of the control and sample I were centrifuged at 10000 rpm at 20° C. for 3 hours, and then the supernatant were poured out. Next, two 10 ml portions of 95% (v/v) ethanol were added to sample I and the control and mixed with the residues. […] Then, the absorbance at 665 nm of the control and sample I were detected. Finally, according to the “Standard Methods for the Examination Chlorophyll-a in Water-Ethanol Extraction” issued by National Indian Education Association, Taiwan (NIEA E508.00B), the absorbance at 665 nm of the control and sample I were calibrated and the concentration of Chlorophyll-a content can be calculated by the absorbance measure.

[2] = Microcystis aeruginosa, 336 h, read-out: Inhibition efficiency (after 14 days)

N[C@H]1C(O)O[C@H](CO)[C@@H](O)[C@@H]1O (stereo partly drawn) [glucosamine]
minimum effective amount of glucosamine (Microcystis aeruginosa; 10 ppm divided by 0.883 mg (weight concentration of Cyanobacteria 0.883 mg/L)): at least 10 ppm/mg algae | Chlorophyll-a content (Microcystis aeruginosa; 10 ppm glucosamine (Sample II), 7th day, control 270 ppb): 80 ppb | Chlorophyll-a content (Microcystis aeruginosa; 10 ppm glucosamine (Sample II), 14th day, control 2657 ppb): 1922 ppb | Chlorophyll-a content (Microcystis aeruginosa; 20 ppm glucosamine (Sample III), 7th day, control 270 ppb): 65 ppb | Chlorophyll-a content (Microcystis aeruginosa; 20 ppm glucosamine (Sample III), 14th day, control 2657 ppb): 1004 ppb | Chlorophyll-a content (Microcystis aeruginosa; 50 ppm glucosamine (Sample IV), 7th day, control 270 ppb): 41 ppb | Chlorophyll-a content (Microcystis aeruginosa; 50 ppm glucosamine (Sample IV), 14th day, control 2657 ppb): 72.3 ppb | inhibition at 10 ppm (Microcystis aeruginosa; [2]): 27.6% | inhibition at 20 ppm (Microcystis aeruginosa; [2]): 62.2% | inhibition at 50 ppm (Microcystis aeruginosa; [2]): 97.2% | Chlorophyll-a content (Microcystis flos-aquae; 10 ppm glucosamine (Sample V), 7th day, control 178 ppb): 0 ppb | Chlorophyll-a content (Microcystis flos-aquae; 10 ppm glucosamine (Sample V), 14th day, control 438 ppb): 225 ppb | Chlorophyll-a content (Microcystis flos-aquae; 20 ppm glucosamine (Sample VI), 7th day, control 178 ppb): 3 ppb | Chlorophyll-a content (Microcystis flos-aquae; 20 ppm glucosamine (Sample VI), 14th day, control 438 ppb): 142 ppb | Chlorophyll-a content (Microcystis flos-aquae; 50 ppm glucosamine (Sample VII), 7th day, control 178 ppb): 15 ppb | Chlorophyll-a content (Microcystis flos-aquae; 50 ppm glucosamine (Sample VII), 14th day, control 438 ppb): 92 ppb | inhibition at 10 ppm (Microcystis flos-aquae; Microcystis flos-aquae, 336 h, 10 ppm glucosamine (Sample V), read-out: Inhibition efficiency (after 14 days)): 48.6% | inhibition at 20 ppm (Microcystis flos-aquae; Microcystis flos-aquae, 336 h, 20 ppm glucosamine (Sample VI), read-out: Inhibition efficiency (after 14 days)): 67.5% | inhibition at 50 ppm (Microcystis flos-aquae; Microcystis flos-aquae, 336 h, 50 ppm glucosamine (Sample VII), read-out: Inhibition efficiency (after 14 days)): 78.9% | algae bloom observed after culture ([1]; 28 days, Bold's medium): the algae in the control bloomed, but not sample I | concentration of Chlorophyll-a content ([1]; cultured 28 days with Bold's medium, control 652 ppb): 74 ppb
